In general, DC50 refers to the concentration giving 50% degradation.

The source of these data is patent publication US20250051347A1, “BIFUNCTIONAL CHIMERIC HETEROCYCLIC COMPOUND AND USE THEREOF AS ANDROGEN RECEPTOR DEGRADER” (Hinova Pharmaceuticals, Inc., priority 2021, published 2025).

In the first assay the target is T1, androgen receptor (AR) splicing variant AR-v7 (Homo sapiens, UniProt P10275).
T1 construct: The degradation activity of compounds on AR-v7 in 22RV1 cells; host or cells: 22RV1 cells
T1 sequence (P10275 1-644 isoform P10275-3): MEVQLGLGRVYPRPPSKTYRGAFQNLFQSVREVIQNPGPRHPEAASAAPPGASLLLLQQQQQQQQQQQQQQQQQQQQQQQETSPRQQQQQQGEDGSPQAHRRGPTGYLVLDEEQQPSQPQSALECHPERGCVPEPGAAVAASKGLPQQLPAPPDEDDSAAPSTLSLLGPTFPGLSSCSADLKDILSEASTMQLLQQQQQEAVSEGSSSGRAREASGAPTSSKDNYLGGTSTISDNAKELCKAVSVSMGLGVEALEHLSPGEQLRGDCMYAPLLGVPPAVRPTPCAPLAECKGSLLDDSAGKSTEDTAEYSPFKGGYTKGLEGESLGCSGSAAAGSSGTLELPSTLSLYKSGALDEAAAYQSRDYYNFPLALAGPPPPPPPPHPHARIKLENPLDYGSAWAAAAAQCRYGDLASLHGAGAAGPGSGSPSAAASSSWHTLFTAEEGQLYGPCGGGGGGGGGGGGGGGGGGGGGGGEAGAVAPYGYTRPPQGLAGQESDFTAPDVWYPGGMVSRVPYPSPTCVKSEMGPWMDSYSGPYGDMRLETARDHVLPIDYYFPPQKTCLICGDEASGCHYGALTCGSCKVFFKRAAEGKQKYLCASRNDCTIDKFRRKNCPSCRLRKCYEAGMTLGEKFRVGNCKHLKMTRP
Briefly: Degradation activity on androgen receptor splicing variant AR-v7 in 22RV1 cells (ELISA). Particulars: AR-v7 degradation in 22RV1 cells, 48 h, class symbols. Type of assay: cell-based. (In general: In an ELISA, binding on a coated surface is turned into a signal by an enzyme label.)
As to `CC(C)(c1ccc(Oc2cnc(CN3CC(F)(F)C3)nc2)cc1)c1ccc(OC2CC(Nc3ccc4c(c3)C(=O)N(C3CCC(=O)NC3=O)C4=O)C2)cc1` (centres unmarked) [Example 479, 5-(((1r,3r)-3-(4-(2-(4-((2-((3,3-difluoroazetidin-1-yl)methyl)pyrimidin-5-yl)oxy)phenyl)propan-2-yl)phenoxy)cyclobutyl)amino)-2-(2,6-dioxopiperidin-3-yl)isoindolin-1,3-dione], the DC50 was 11 to 100 nM.

Compound `CC(C)(c1ccc(OCc2nccc(N3CC4(COC4)C3)n2)cc1)c1ccc(O[C@H]2C[C@@H](Nc3ccc4c(c3)C(=O)N(C3CCC(=O)NC3=O)C4=O)C2)cc1` (some centres unmarked) [Example 545] yielded a DC50 of 11 to 100 nM.

Turning to `CC(C)(c1ccc(Oc2ccc(-n3nccn3)nc2)cc1)c1ccc(OC2CC(Nc3ccc4c(c3)CN(C3CCC(=O)NC3=O)C4=O)C2)cc1` (centres unmarked) [Example 93, 3-(5-((1r,3r)-3-(4-(2-(4-((6-(2H-1,2,3-triazol-2-yl)pyridin-3-yl)oxy)phenyl)propan-2-yl)phenoxy)cyclobutyl)amino)-1-oxoisoindolin-2-yl)piperidin-2,6-dione], the DC50 is 101 to 1000 nM.

For the compound `CC(O)c1ncc(Oc2ccc(C(C)(C)c3ccc(OC[C@@H]4CCN4c4ccc5c(c4)C(=O)N(C4CCC(=O)NC4=O)C5=O)cc3)cc2)cn1` (some centres unmarked) [Example 340], the half-maximal degradation concentration (DC50) is 11 to 100 nM.

Compound `CC(=O)c1nccc(COc2ccc(C(C)(C)c3ccc(OC[C@H]4CCCN4c4ccc5c(c4)C(=O)N(C4CCC(=O)NC4=O)C5=O)cc3)cc2)n1` (stereo partly drawn) [Example 144, 5-((R)-2-((4-(2-(4-((2-acetylpyrimidin-4-yl)methoxy)phenyl)propan-2-yl)phenoxy)methyl)pyrrolidin-1-yl)-2-(2,6-dioxopiperidin-3-yl)isoindolin-1,3-dione] displayed a DC50 of 1000 to 5000 nM.

With `CC(=O)c1nccc(COc2ccc(C(C)(C)c3ccc(N4CC5(C4)CN(c4ccc6c(c4)C(=O)N(C4CCC(=O)NC4=O)C6=O)C5)cc3)cc2)n1` (centres unmarked) [Example 488], the DC50 is 11 to 100 nM.

The assay is the same for the next values; noted with them: AR-v7 degradation in 22RV1 cells, 48 h, numeric values.
Compound `CC(C)(c1ccc(OCCCCCCCCOCCCCNc2ccc3c(c2)C(=O)N(C2CCC(=O)NC2=O)C3=O)cc1)c1ccc(OCc2cncc(NS(C)(=O)=O)n2)cc1` (centres unmarked) [Example 31, N-(6-((4-(2-(4-((8-(4-((2-(2,6-dioxopiperidin-3-yl)-1,3-dioxoisoindolin-5-yl)amino)butoxy)octyl)oxy)phenyl)propan-2-yl)phenoxy)methyl)pyrazin-2-yl)methanesulfonamide] gave a DC50 greater than 10000 nM.

For `CC(=O)c1nccc(COc2ccc(C(C)(C)c3ccc(OC4CCCN(c5ccc6c(c5)C(=O)N(C5CCC(=O)NC5=O)C6=O)C4)cc3)cc2)n1` (centres unmarked) [Example 107], the DC50 was greater than 10000 nM.

`CC(C)(c1ccc(OCc2ccnc(NS(C)(=O)=O)n2)cc1)c1ccc(OC2CCN(c3ccc4c(c3)C(=O)N(C3CCC(=O)NC3=O)C4=O)CC2)cc1` (centres unmarked) [Example 34, N-(4-((4-(2-(4-((1-(2-(2,6-dioxopiperidin-3-yl)-1,3-dioxoisoindolin-yl)piperidin-4-yl)oxy)phenyl)propan-2-yl)phenoxy)methyl)pyrimidin-2-yl)methanesulfonamide]: the DC50 is greater than 10000 nM.

Take `CC(C)(c1ccc(OCCCCCCCCOCCCCNc2ccc3c(c2)C(=O)N(C2CCC(=O)NC2=O)C3=O)cc1)c1ccc(OCc2ccnc(N3CCCS3(=O)=O)n2)cc1` (centres unmarked) [Example 27, 5-((4-((8-(4-(2-(4-((2-(1,1-dioxoisothiazolidin-2-yl)pyrimidin-4-yl)methoxy)phenyl)propan-2-yl)phenoxy)octyl)oxy)butyl)amino)-2-(2,6-dioxopiperidin-3-yl)isoindolin-1,3-dione]: the half-maximal degradation concentration (DC50) was found to be 7580 nM.

Compound `CC(C)(c1ccc(OCCCCCCCCOCCCCNc2ccc3c(c2)C(=O)N(C2CCC(=O)NC2=O)C3=O)cc1)c1ccc(OCc2ccnc(N)n2)cc1` (centres unmarked) [Example 28, 5-((4-((8-(4-(2-(4-((2-aminopyrimidin-4-yl)methoxy)phenyl)propan-2-yl)phenoxy)octyl)oxy)butyl)amino)-2-(2,6-dioxopiperidin-3-yl)isoindolin-1,3-dione] showed a DC50 of 5270 nM.
